Among the data in patent EP3478687B1 (Daewoong Pharmaceutical Co., Ltd., priority 2016, dated 2018) are IC50 values, retold here.

What is called IC50 is the midpoint of a concentration-inhibition curve.

In test [1] the target is T1, Recombinant purified human BTK (Homo sapiens, UniProt Q06187).
T1 construct: purchased Promega V9071
Nature of the test: BTK kinase inhibitory activity, ADP-Glo kinase assay (Promega V9071). Conditions: ATP 10 uM, 8 ng BTK per reaction, 1 hour 30 °C, chemiluminescence. The test is classed as biochemical. The essentials:
(§1)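 IC50 values come from ADP-Glo luminescence after 1 h kinase reactions at 30 °C in 1% DMSO on 0.2 µg/µL Poly(Glu4,Tyr1) substrate. ATP was 10 µM for BTK (8 ng, buffer containing MnCl2) and 5 µM for JAK3 (4 ng), in Tris-Cl pH 7.5/MgCl2/BSA/DTT.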
On the technique in general: ADP-Glo turns the ADP formed in a reaction into a luminescent signal.

Test [2] addresses T2, Recombinant purified human JAK3 (Homo sapiens, UniProt P52333).
T2 construct: purchased Promega V9441
T2 sequence (P52333 1-1124): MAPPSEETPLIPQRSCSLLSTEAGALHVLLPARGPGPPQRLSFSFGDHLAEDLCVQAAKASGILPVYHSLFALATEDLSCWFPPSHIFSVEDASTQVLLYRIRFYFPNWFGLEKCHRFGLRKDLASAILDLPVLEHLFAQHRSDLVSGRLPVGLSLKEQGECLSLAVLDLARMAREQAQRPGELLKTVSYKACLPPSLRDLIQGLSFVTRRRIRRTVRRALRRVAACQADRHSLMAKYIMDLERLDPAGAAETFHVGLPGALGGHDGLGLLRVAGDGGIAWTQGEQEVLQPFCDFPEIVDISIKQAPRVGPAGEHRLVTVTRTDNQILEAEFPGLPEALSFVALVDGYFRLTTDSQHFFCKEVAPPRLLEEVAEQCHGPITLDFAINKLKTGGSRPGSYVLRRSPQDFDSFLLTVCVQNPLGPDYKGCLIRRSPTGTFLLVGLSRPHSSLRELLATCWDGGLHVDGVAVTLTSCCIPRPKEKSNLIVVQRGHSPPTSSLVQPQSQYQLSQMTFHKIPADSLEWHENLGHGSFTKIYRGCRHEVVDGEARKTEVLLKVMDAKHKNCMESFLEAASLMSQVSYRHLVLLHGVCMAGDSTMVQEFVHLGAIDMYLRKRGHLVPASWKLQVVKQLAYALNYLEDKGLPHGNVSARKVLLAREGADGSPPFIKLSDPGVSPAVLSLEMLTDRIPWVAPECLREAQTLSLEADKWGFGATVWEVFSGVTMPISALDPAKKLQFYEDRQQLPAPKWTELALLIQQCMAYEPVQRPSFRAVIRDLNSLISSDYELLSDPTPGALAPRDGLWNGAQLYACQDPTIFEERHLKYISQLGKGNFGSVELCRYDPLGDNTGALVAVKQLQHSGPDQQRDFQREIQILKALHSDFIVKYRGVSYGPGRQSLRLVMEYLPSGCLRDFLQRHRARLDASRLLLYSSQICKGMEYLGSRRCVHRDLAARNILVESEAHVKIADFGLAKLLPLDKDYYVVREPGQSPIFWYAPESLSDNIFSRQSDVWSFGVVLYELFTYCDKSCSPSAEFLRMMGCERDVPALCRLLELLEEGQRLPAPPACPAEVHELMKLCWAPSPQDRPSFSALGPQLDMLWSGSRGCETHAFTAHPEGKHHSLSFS
Nature of the test: JAK3 kinase inhibitory activity, ADP-Glo kinase assay (Promega V9441). Conditions: ATP 5 uM, 4 ng JAK3 per reaction, 1 hour 30 °C, chemiluminescence. In kind it is biochemical. The essentials:
as §1

T1 sequence (Q06187 whole entry): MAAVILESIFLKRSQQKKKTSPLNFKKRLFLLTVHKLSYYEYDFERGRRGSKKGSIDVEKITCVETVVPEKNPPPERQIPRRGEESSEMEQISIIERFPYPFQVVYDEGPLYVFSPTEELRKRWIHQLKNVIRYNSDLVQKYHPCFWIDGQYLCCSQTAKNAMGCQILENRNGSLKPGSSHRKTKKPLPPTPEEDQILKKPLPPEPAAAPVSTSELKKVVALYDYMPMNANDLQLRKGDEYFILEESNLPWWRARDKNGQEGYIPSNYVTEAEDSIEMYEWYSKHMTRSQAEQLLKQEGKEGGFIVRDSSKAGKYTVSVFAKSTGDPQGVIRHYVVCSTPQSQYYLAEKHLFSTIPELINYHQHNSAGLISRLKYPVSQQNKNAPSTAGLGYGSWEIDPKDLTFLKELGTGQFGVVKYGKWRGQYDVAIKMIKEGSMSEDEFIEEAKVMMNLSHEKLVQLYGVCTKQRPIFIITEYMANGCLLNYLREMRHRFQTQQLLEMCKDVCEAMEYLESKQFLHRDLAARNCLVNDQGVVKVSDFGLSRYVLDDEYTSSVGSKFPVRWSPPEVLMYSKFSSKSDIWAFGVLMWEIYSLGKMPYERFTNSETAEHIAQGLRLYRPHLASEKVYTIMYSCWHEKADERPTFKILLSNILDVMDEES

`C=CC(=O)N1CCC[C@@H](Nc2nc(Nc3cc(C)ns3)nc3[nH]cc(Cl)c23)C1` [Example 136, (R)-1-(3-((5-chloro-2-((3-methylisothiazol-5-yl)amino)-7H-pyrrolo[2,3-d]pyrimidin-4-yl)amino)piperidin-1-yl)prop-2-en-1-one]: the IC50 in test [1] came out at 1.1 nM; in test [2], 0.1 nM.

On to `C=CC(=O)N1CCC[C@@H](Nc2nc(Nc3cccnc3)nc3[nH]cc(Cl)c23)C1` [Example 137, (R)-1-(3-((5-chloro-2-(pyridin-3-ylamino)-7H-pyrrolo[2,3-d]pyrimidin-4-yl)amino)piperidin-1-yl)prop-2-en-1-one], for which the results for the half-inhibitory concentration (IC50) in test [1] and in test [2] were 19.6 nM and 2.6 nM, respectively.

Regarding `CCn1cc(Nc2nc(N[C@H]3CN(C(=O)CC#N)CC[C@H]3F)c3c(Cl)n[nH]c3n2)cn1` [Example 138], the results for the IC50 in test [1] and in test [2] were 92.7 nM and greater than 80 nM, respectively.

As for `N#CCC(=O)N1CCC[C@@H](Nc2nc(Nc3cnn(C4CC4)c3)nc3[nH]nc(Cl)c23)C1` [Example 139, (R)-3-(3-((3-chloro-6-((1-cyclopropyl-1H-pyrazol-4-yl)amino)-1H-pyrazolo[3,4-d]pyrimidin-4-yl)amino)piperidin-1-yl)-3-oxopropanenitrile], the IC50 in test [1] is 143 nM; in test [2], greater than 80 nM.

Turning to `C/C=C/C(=O)N1CCC[C@@H](Nc2nc(Nc3ccc(N4CCN(C)CC4)cc3)nc3[nH]cc(Cl)c23)C1` [Example 140, (R,E)-1-(3-((5-chloro-2-((4-(4-methylpiperazin-1-yl)phenyl)amino)-7H-pyrrolo [2,3-d]pyrimidin-4-yl)amino)piperidin-1-yl)but-2-en-1-one], the values for the IC50 in test [1] and in test [2] were 986 nM and greater than 80 nM, respectively.

Consider `CN1CCN(c2ccc(Nc3nc(N[C@@H]4CCCN(C(=O)C#CC5CC5)C4)c4c(Cl)c[nH]c4n3)cc2)CC1` [Example 141, (R)-1-(3-((5-chloro-2-((4-(4-methylpiperazin-1-yl)phenyl)amino)-7H-pyrrolo [2,3-d]pyrimidin-4-yl)amino)piperidin-1-yl)-3-cyclopropylprop-2-yn-1-one], for which the IC50 in test [1] was found to be 306 nM; in test [2] it was 38.5 nM.

For the compound `CCC#CC(=O)N1CCC[C@@H](Nc2nc(Nc3ccc(N4CCN(C)CC4)cc3)nc3[nH]cc(Cl)c23)C1` [Example 142, (R)-1-(3-((5-chloro-2-((4-(4-methylpiperazin-1-yl)phenyl)amino)-7H-pyrrolo[2,3-d]pyrimidin-4-yl)amino)piperidin-1-yl)pent-2-yn-1-one], the IC50 in test [1] was 210 nM; in test [2], 22.4 nM.

With `C=CC(=O)N1CCC[C@@H](Nc2nc(Nc3cnn(CC(F)(F)F)c3)nc3[nH]ncc23)C1` [Example 144, (R)-1-(3-((6-((1-(2,2,2-trifluoroethyl)-1H-pyrazol-4-yl)amino)-1H-pyrazolo[3,4-d]pyrimidin-4-yl)amino)piperidin-1-yl)prop-2-en-1-one], the results for the IC50 in test [1] and in test [2] were 1.5 nM and 1.4 nM, respectively.

With `C=CC(=O)N1CCC[C@@H](Nc2nc(Nc3cnn(CCN(CC)CC)c3)nc3[nH]ncc23)C1` [Example 145, (R)-1-(3-((6-((1-(2-(diethylamino)ethyl)-1H-pyrazol-4-yl)amino)-1H-pyrazolo[3,4-d]pyrimidin-4-yl)amino)piperidin-1-yl)prop-2-en-1-one], the IC50 in test [1] was 1.4 nM; in test [2] it was 1.7 nM.

With `C=CC(=O)N1CCC[C@@H](Nc2nc(Nc3cnoc3)nc3[nH]ncc23)C1` [Example 146, (R)-1-(3-((6-(isoxazol-4-ylamino)-1H-pyrazolo[3,4-d]pyrimidin-4-yl)amino)piperidin-1-yl)prop-2-en-1-one], the IC50 in test [1] worked out at 1.4 nM; in test [2], 7.4 nM.

As to `C=CC(=O)N1CCC[C@@H](Oc2nc(Nc3cnn(CC)c3)nc3[nH]nc(Cl)c23)C1` [Example 147], the IC50 stood at 2.1 nM in test [1] and 1.4 nM in test [2].

Take `C=CC(=O)N1CCC[C@@H](Oc2nc(Nc3cnn(C4CC4)c3)nc3[nH]cc(C#N)c23)C1` [Example 148, (R)-4-((1-acryloylpiperidin-3-yl)oxy)-2-((1-cyclopropyl-1H-pyrazol-4-yl)amino)-7H-pyrrolo[2,3-d]pyrimidine-5-carbonitrile]: the IC50 in test [1] stood at 1.6 nM; in test [2] it was 0.3 nM.

Regarding `C=CC(=O)N1CCC[C@@H](Oc2nc(Nc3cnn(CC(F)F)c3)nc3[nH]cc(C#N)c23)C1` [Example 149, (R)-4-((1-acryloylpiperidin-3-yl)oxy)-2-((1-(2,2-difluoroethyl)-1H-pyrazol-4-yl)amino)-7H-pyrrolo[2,3-d]pyrimidine-5-carbonitrile], the values for the IC50 in test [1] and in test [2] were 1.6 nM and 0.2 nM, respectively.

Regarding `C=CC(=O)N1CCC[C@@H](Oc2nc(Nc3cnn(CC)c3)nc3[nH]cc(C#N)c23)C1` [Example 150, (R)-4-((1-acryloylpiperidin-3-yl)oxy)-2-((1-ethyl-1H-pyrazol-4-yl)amino)-7H-pyrrolo[2,3-d]pyrimidine-5-carbonitrile], the values for the IC50 in test [1] and in test [2] were 1.6 nM and 0.3 nM, respectively.

`C=CC(=O)N1CCC[C@@H](Oc2nc(Nc3cnn(CC)c3)nc3[nH]ccc23)C1` [Example 151, (R)-1-(3-((2-((1-ethyl-1H-pyrazol-4-yl)amino)-7H-pyrrolo[2,3-d]pyrimidin-4-yl)oay)piperidin-1-yl)prop-2-en-1-one]: the IC50 in test [1] was 3 nM; in test [2], 0.4 nM.

In the case of `C=CC(=O)N1CCC[C@@H](Oc2nc(Nc3ccc(N4CCOCC4)cc3)nc3[nH]ccc23)C1` [Example 152, (R)-1-(3-((2-((4-morpholinophenyl)amino)-7H-pyrrolo[2,3-d]pyrimidin-4-yl)oay)piperidin-1-yl)prop-2-en-1-one], the values for the IC50 in test [1] and in test [2] were 4.5 nM and 2 nM, respectively.

Turning to `C=CC(=O)N1CCC[C@@H](Oc2nc(Nc3cnn(C4CC4)c3)nc3[nH]nc(Cl)c23)C1` [Example 153], the figures for the IC50 in test [1] and in test [2] were 2.2 nM and 1.6 nM, respectively.

On to `N#C/C(=C\C1CC1)C(=O)N1CCC[C@@H](Oc2nc(Nc3cnn(C4CC4)c3)nc3[nH]nc(Cl)c23)C1` [Example 154, (R,E)-2-(3-((3-chloro-6-((1-cyclopropyl-1H-pyrazol-4-yl)amino)-1H-pyrazolo[3,4-d]pyrimidin-4-yl)oxy)piperidine-1-carbonyl)-3-cyclopropylacrylonitrile], for which the IC50 was 2.5 nM in test [1] and 54.2 nM in test [2].

`CCn1cc(Nc2nc(O[C@@H]3CCCN(C(=O)/C(C#N)=C/C4CC4)C3)c3c(Cl)n[nH]c3n2)cn1` [Example 155, (R,E)-2-(3-((3-chloro-6-((1-ethyl-1H-pyrazol-4-yl)amino)-1H-pyrazolo[3,4-d]pyrimidin-4-yl)oxy)piperidine-1-carbonyl)-3-cyclopropylacrylonitrile]: the IC50 was 2.2 nM in test [1] and 53.7 nM in test [2].

For `CCn1cc(Nc2nc(O[C@@H]3CCCN(C(=O)/C(C#N)=C/C(C)C)C3)c3c(C#N)c[nH]c3n2)cn1` [Example 156, (R,E)-4-((1-(2-cyano-4-methylpent-2-enoyl)piperidin-3-yl)oxy)-2-((1-ethyl-1H-pyrazol-4-yl)amino)-7H-pyrrolo[2,3-d]pyrimidine-5-carbonitrile], the IC50 in test [1] was 1.1 nM; in test [2] it was 0.5 nM.

On to `CCn1cc(Nc2nc(O[C@@H]3CCCN(C(=O)/C(C#N)=C/C4CC4)C3)c3c(C#N)c[nH]c3n2)cn1` [Example 157, (R,E)-4-((1-(2-cyano-3-cyclopropylacryloyl)piperidin-3-yl)oxy)-2-((1-ethyl-1H-pyrazol-4-yl)amino)-7H-pyrrolo[2,3-d]pyrimidine-5-carbonitrile], for which the IC50 turned out to be 1.4 nM in test [1] and 0.6 nM in test [2].

On to `CC(C)/C=C(\C#N)C(=O)N1CCC[C@@H](Oc2nc(Nc3cnn(C4CC4)c3)nc3[nH]nc(Cl)c23)C1` [Example 158, (R,E)-2-(3-((3-chloro-6-((1-cyclopropyl-1H-pyrazol-4-yl)amino)-1H-pyrazolo[3,4-d]pyrimidin-4-yl)oxy)piperidine-1-carbonyl)-4-methylpent-2-enenitrile], for which the results for the IC50 in test [1] and in test [2] were 1.2 nM and 2.9 nM, respectively.
